Measurements from patent US6582351B1, “Imidazopyridinone derivatives and their use as phosphodiesterase inhibitors” (Fujisawa Pharmaceutical Co., Ltd., priority 1999, dated 2003).

Legend:
human platelet PDE-V = molecular target: T1, human platelet PDE-V (Homo sapiens, UniProt O76074); assay: cGMP-Phosphodiesterase (PDE) assay; enzymatic inhibitory test against human platelet PDE-V; type: biochemical; conditions: 0.1 μM [3H]-cGMP substrate, 30° C., 10 minutes
T1 construct: Human platelet cGMP-PDE was separated from other isozymes in human platelets; from tissue; host or cells: human platelets
Procedure: [II] Test Method: cGMP-Phosphodiesterase (PDE) Assay
Human platelet cGMP-PDE was separated from other isozymes in human platelets by a modification of the method of Thompson et. al. (see Cyclic Nucleotide Phosphodiesterase (PDE), in Methods of Enzymatic analysis, Vol 4, p127-234, 1984). Specific inhibitory activity of PDE-V was measured by following procedure. In enzyme inhibition assays, the test compounds were dissolved in DMSO and then diluted with assay buffer (50 mM Tris-HCl, 0.077 mg/ml dithiothreitol and 10 mg/ml snake venom, 1 mM EGTA, pH 8.0), at final concentrations ranging from 10^−10 to 10^−6 M. Assays were performed at 0.1 μM substrate ([^3H]-cGMP) concentration, at 30° C. for 10 minutes using enzyme dilutions which gave 10-20% hydrolysis of substrate. Each assay was initiated by addition of substrate and terminated by addition of anion exchange resin (Dowex® 1-X8, […]) followed by centrifugation for 10 minutes (3000 rpm, at 4° C.). Radioactivity of supernatant ([^3H]-GMP) was assayed by liquid scintillation counting.

| SMILES | IC50 (human platelet PDE-V) [nM] | melting point [°C] |
| --- | --- | --- |
| COc1ccc(Cn2c(=O)n(C3CCC4OC(C)(C)OC4C3)c3ccc(C#N)cc32)cc1Cl (stereo not drawn) [Example 2(95), 3-(3-Chloro-4-methoxybenzyl)-5-cyano-1-(t-3,t-4-isopropylidenedioxy-r-1-cyclohexyl)-2,3-dihydro-1H-benzimidazol-2-one] | < 10 |  |
| COc1ccc(Cn2c(=O)n([C@H](C)CO)c3ncc(C(F)(F)F)cc32)cc1Cl [Example 4(2), 1-(3-Chloro-4-methoxybenzyl)-3-((R)-2-hydroxy-1-methylethyl)-6-trifluoromethyl-2,3-dihydro-1H-imidazo[4,5-b]pyridin-2-one] | < 10 | 154.5 to 155 |
| COc1ccc(Cn2c(=O)n(C3CCN(C)CC3)c3ccc(C#N)cc32)cc1Cl [Example 28, 3-(3-chloro-4-methoxybenzyl)-5-cyano-1-(1-methylpiperidin-4-yl)-2,3-dihydro-1H-benzimidazole-2-one] | < 10 |  |
| COc1ccc(Cn2c(=O)n(-c3ccc4[nH]cnc4c3)c3ccc(C(F)(F)F)cc32)cc1Cl [Example 2(21), 1-(1H-Benzimidazol-5-yl)-3-(3-chloro-4-methoxybenzyl)-5-trifluoromethyl-2,3-dihydro-1H-benzimidazol-2-one] | < 10 | 158 to 160 |
| COc1ccc(Cn2c(=O)n([C@H]3CC[C@H](O)CC3)c3ccc(C#N)cc32)cc1C#N [Example 2(81), 5-Cyano-3-(3-cyano-4-methoxybenzyl)-1-(trans-4-hydroxycyclohexyl)-2,3-dihydro-1H-benzimidazol-2-one] | < 10 | 191 to 193 |
| COc1ccc(Cn2c(=O)n([C@H]3CCN(C(=O)OC(C)(C)C)C3)c3ccc(C#N)cc32)cc1Cl [Example 2(60), 1-[(S)-1-tert-Butoxycarbonylpyrrolidin-3-yl]-3-(3-chloro-4-methoxybenzyl)-5-cyano-2,3-dihydro-1H-benzimidazol-2-one] | < 10 |  |
| COc1ccc(Cn2c(=O)n([C@H]3CC[C@H](O)CC3)c3ccc([N+](=O)[O-])cc32)cc1[N+](=O)[O-] [Example 2(109), 1-(trans-4-Hydroxycyclohexyl)-3-(4-methoxy-3-nitrobenzyl)-5-nitro-1,3-dihydro-2H-benzimidazol-2-one] | < 10 |  |
| COc1ccc(Cn2c(=O)n([C@H]3CC[C@H](O)CC3)c3ncc(C#N)cc32)cc1Cl [Example 33, 1-(3-chloro-4-methoxybenzyl)-6-cyano-3-(trans-4-hydroxycyclohexyl)-2,3-dihydro-1H-imidazo[4,5-b]pyridin-2-one] | < 10 |  |
| COc1ccc(Cn2c(=O)n([C@H]3CC[C@H](O)CC3)c3ncc(C#N)cc32)cc1Br [Example 2(100), 1-(3-Bromo-4-methoxybenzyl)-6-cyano-3-(trans-4-hydroxycyclohexyl)-2,3-dihydro-1H-imidazo[4,5-b]pyridin-2-one] |  | 114 to 116 |
